Test results as given in patent US20040002141A1, “Methods and compositions for propagating vectors containing toxic cDNAs and ion channel assay systems” (priority 2002, published 2004).

Key:
[1] = target: T1, MEC-4d, MEC-10d and MEC-2 (Caenorhabditis elegans, UniProt P24612+P34886, A673T/A713T); experiment: Amiloride dose-response, two-electrode voltage clamp in Xenopus oocytes co-expressing MEC-4d, MEC-10d and MEC-2; assay type: cell-based; conditions: in the presence of MEC-10d
T1 construct: Plasmids containing full-length degenerin cDNAs are toxic to standard E. coli strains; expressed in transfected cells; host or cells: Xenopus laevis oocytes injected with cRNA
T1 sequence (P34886 whole entry A673T): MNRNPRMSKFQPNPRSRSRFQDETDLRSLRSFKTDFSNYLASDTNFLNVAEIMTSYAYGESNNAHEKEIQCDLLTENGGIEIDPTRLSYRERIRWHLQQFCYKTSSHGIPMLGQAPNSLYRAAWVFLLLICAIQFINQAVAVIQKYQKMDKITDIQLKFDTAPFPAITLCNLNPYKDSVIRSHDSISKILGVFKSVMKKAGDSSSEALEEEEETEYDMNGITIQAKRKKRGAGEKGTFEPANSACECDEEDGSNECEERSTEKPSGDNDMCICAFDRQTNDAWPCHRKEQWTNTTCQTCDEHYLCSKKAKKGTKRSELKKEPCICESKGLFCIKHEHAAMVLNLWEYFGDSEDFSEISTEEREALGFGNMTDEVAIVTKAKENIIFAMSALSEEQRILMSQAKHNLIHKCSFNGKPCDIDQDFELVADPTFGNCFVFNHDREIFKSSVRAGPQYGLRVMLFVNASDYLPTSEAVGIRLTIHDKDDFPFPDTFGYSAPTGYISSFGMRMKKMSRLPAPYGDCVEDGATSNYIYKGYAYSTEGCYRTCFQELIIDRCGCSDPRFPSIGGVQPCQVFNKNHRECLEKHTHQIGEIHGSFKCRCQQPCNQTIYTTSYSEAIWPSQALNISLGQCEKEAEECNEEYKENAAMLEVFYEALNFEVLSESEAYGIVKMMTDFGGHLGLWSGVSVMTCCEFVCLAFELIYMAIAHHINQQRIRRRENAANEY
T1 sequence (P24612 whole entry A713T): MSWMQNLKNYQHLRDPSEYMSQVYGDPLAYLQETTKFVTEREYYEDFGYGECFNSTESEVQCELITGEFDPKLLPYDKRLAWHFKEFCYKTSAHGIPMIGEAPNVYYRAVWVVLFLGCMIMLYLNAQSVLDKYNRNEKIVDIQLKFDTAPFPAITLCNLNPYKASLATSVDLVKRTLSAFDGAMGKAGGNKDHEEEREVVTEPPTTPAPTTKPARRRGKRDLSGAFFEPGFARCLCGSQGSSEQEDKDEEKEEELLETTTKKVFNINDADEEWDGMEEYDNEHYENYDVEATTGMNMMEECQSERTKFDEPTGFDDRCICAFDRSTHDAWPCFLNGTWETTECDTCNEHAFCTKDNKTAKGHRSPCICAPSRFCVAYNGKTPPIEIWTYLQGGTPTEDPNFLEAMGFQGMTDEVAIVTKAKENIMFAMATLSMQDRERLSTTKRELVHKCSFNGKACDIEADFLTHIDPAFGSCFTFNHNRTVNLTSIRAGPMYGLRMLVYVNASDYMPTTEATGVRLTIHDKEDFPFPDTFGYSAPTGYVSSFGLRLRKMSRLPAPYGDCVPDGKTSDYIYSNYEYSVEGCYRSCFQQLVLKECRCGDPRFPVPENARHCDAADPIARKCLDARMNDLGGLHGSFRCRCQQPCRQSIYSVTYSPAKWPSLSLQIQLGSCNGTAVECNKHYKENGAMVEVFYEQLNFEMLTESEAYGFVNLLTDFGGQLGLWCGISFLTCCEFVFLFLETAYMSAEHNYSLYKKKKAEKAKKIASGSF
Description: (§1) Oocyte Expression & Electrophysiology. Capped RNAs (“cRNAs”) were synthesized (T7 mMESSAGE mMACHINE™ kit, Ambion, Austin, Tex.), purified, and quantified spectroscopically. Xenopus laevis oocytes were harvested and injected with 10 ng of each cRNA, except for oocytes co-expressing only MEC-4d and MEC-2(114-363), which were injected with 10 ng of the former and 20 ng of the latter. Oocytes were maintained in L-15 oocyte medium containing 100 μg/mL gentamicin (Cell & Molecular Technologies, Philipsburg, N.J.) at 16-18° C.
(§2) Membrane potential and current were measured 4-10 days after cRNA injection using a two-electrode voltage clamp (Warner OC-725C) at 22-25° C. […]
(§3) Analog signals were filtered at 200 Hz and sampled at 1-2 kHz (ITC-16, Instrutech, Great Neck, N.Y.); a 60 Hz notch filter was used to minimize line noise. Average values are reported as mean±S.E.M. Curves were fit by a nonlinear least-squares method (IgorPro 4.01, Wavemetrics, Oswego, Oreg.); the standard deviation measured at each point provided the weighting function. […] Relative permeabilities were calculated from the difference in reversal potential measured in solutions containing Na^+ and each test ion using the Goldman-Hodgkin-Katz equation (Hille, 2001, In: Ion Channels of Excitable Membranes, Sinaur Associates, Inc., Sunderland, Mass.).

MEC-4d and MEC-2 = target: T2, MEC-4d and MEC-2 (Caenorhabditis elegans, UniProt P24612, A713T); experiment: Amiloride dose-response, two-electrode voltage clamp in Xenopus oocytes co-expressing MEC-4d and MEC-2; assay type: cell-based; conditions: in the absence of MEC-10d; without MEC-2(114-363)
T2 construct: Plasmids containing full-length degenerin cDNAs are toxic to standard E. coli strains; expressed in transfected cells; host or cells: Xenopus laevis oocytes injected with cRNA
T2 sequence (Q27433 whole entry): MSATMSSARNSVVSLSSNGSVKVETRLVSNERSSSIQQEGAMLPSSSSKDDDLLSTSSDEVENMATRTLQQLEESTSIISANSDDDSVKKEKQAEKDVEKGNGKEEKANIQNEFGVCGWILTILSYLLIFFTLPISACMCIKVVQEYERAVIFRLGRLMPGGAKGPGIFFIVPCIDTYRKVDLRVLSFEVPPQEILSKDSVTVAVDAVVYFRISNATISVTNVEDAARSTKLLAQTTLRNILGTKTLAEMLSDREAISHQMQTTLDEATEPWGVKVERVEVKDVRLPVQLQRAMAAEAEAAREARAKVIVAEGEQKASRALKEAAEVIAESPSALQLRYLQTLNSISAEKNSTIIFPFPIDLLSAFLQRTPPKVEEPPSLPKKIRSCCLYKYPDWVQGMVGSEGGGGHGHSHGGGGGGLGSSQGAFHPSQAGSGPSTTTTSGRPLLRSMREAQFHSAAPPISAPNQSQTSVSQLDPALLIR
T2 sequence (P24612 whole entry A713T): as the sequence (P24612 whole entry A713T) above
Description: as §1, §2, §3

UNC-105d = conditions: García-Añoveros et al., 1998; cited from earlier work
αβγENaC channels = target: T3, αβγENaC channels (Rattus norvegicus, UniProt P37089+P37090+P37091); conditions: McNicholas and Canessa, 1997; cited from earlier work
T3 sequence (P37089 1-698): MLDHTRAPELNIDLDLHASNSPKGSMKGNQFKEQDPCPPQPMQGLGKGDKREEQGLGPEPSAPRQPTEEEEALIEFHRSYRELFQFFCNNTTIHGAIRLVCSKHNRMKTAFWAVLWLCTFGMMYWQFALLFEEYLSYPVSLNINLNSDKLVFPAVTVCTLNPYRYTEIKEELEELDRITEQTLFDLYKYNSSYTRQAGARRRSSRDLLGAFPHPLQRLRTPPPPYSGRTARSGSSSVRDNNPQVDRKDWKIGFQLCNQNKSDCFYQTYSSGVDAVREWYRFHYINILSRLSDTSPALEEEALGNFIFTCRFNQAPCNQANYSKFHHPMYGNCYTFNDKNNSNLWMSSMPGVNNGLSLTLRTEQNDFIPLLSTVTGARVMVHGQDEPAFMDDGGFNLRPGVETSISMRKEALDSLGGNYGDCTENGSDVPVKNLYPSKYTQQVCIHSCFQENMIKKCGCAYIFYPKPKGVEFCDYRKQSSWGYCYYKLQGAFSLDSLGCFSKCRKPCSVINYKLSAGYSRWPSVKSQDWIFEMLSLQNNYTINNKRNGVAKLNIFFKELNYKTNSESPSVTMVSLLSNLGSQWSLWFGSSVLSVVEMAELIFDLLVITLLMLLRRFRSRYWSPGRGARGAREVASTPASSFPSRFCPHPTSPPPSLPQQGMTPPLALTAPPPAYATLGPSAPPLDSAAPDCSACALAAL
T3 sequence (P37090 1-638): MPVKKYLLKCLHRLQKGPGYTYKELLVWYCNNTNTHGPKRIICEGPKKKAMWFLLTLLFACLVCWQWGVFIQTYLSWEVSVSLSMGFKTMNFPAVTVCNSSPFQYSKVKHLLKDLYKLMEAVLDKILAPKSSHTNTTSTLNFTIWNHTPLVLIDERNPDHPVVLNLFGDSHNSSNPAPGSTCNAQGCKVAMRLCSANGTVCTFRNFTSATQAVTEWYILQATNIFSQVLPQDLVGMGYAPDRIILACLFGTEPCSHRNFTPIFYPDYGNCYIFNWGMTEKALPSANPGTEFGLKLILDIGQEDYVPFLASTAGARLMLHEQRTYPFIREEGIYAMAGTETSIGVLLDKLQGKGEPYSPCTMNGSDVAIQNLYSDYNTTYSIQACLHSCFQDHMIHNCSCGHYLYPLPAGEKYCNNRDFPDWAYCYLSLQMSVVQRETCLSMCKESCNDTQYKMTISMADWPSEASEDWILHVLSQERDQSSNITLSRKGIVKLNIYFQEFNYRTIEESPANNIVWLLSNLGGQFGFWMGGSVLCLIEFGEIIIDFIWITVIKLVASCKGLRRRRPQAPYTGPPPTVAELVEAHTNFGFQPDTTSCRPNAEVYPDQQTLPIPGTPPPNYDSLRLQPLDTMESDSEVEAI
T3 sequence (P37091 1-650): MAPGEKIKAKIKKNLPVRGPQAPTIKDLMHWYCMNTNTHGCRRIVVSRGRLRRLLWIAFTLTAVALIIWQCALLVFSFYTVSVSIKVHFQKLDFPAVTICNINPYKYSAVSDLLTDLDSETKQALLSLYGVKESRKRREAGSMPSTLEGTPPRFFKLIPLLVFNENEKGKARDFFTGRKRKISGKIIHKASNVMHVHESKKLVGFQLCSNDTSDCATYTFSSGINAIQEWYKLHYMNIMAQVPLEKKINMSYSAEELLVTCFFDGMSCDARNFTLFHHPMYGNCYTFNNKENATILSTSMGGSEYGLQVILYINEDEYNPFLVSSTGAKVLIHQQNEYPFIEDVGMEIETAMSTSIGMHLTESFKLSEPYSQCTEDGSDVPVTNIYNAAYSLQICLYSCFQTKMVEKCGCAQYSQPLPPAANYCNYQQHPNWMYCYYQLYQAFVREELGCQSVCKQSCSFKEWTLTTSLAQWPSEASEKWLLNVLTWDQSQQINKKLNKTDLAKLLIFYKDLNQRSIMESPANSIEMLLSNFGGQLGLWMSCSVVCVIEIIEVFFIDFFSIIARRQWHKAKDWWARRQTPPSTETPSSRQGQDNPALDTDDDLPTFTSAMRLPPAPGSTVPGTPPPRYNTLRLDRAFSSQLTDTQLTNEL

## N=C(N)NC(=O)c1nc(Cl)c(N)nc1N [amiloride]
[1]
  δ, voltage-dependence of amiloride blockade (Woodhull model fit): 0.52
MEC-4d and MEC-2
  δ, voltage-dependence of amiloride blockade (Woodhull model fit): 0.63
UNC-105d
  δ, voltage-dependence of amiloride blockade: 0.65-0.68
αβγENaC channels
  δ, voltage-dependence of amiloride blockade: 0.15
